Measurements: ChEMBL document CHEMBL1147043, “Comparative metabolism of radiolabeled muraglitazar in animals and humans by quantitative and qualitative metabolite profiling” (Drug Metab Dispos, 2007)

Experiments:
Plasma [1] = test: Biodistribution in orally dosed Sprague-Dawley rat plasma assessed as 12-hydroxy-O-demethyl muraglitazar level after 12 hrs by LC/MS analysis; type: ADME, organism-based; details: in vivo, po
[2] = Drug concentration in human urine assessed as recovery of radioactive dose at 10 mg, po after 240 hrs; type: ADME, organism-based; details: in vivo
Rattus norvegicus [3] = test: AUC (0 to T) in Sprague-Dawley rat at 10 mg/kg, po after 24 hrs; type: ADME, organism-based, Plasma; parameters: time < 24 hr, dose 10 mg/kg, route oral; details: in vivo
Rattus norvegicus [4] = test: Biodistribution in orally dosed Sprague-Dawley rat urine assessed as O-demethyl muraglitazar glucuronide level by LC/MS analysis; type: ADME, organism-based; details: in vivo, po
[5] = Fecal excretion of compound in bile duct-cannulated orally dosed cynomolgus monkey within 48 hrs; type: ADME, organism-based, Macaca fascicularis; details: faeces, po, read-out: Activity
[6] = Biodistribution in orally dosed human urine assessed as 12-hydroxy muraglitazar level by LC/MS analysis; type: ADME, organism-based; details: in vivo, po
[7] = Biodistribution in orally dosed cynomolgus monkey urine assessed as 8-hydroxy-O-demethyl muraglitazar level by LC/MS analysis; type: ADME, organism-based, Macaca fascicularis; details: in vivo, po
Plasma [8] = test: Biodistribution in orally dosed Beagle dog plasma assessed as O-Dealkyl muraglitazar level after 12 hrs by LC/MS analysis; type: ADME, organism-based, Canis lupus familiaris; details: in vivo, po
Rattus norvegicus [9] = test: Biodistribution in orally dosed Sprague-Dawley rat urine assessed as 8-hydroxy muraglitazar level by LC/MS analysis; type: ADME, organism-based; details: in vivo, po
Rattus norvegicus [10] = test: Biodistribution in orally dosed Sprague-Dawley rat urine assessed as 8,12-dihydroxy muraglitazar level by LC/MS analysis; type: ADME, organism-based; details: in vivo, po
Hepatocyte [11] = test: Metabolic stability in Sprague-Dawley rat hepatocytes assessed as 8,12-dihydroxy muraglitazar level by LC/MS analysis relative to control; type: ADME, cell-based
Plasma [12] = test: Biodistribution in orally dosed Sprague-Dawley rat plasma assessed as O-demethyl muraglitazar level after 1 hr by LC/MS analysis; type: ADME, organism-based; details: in vivo, po
Hepatocyte [13] = test: Metabolic stability in Sprague-Dawley rat hepatocytes assessed as 17-hydroxy-O-demethyl muraglitazar level by LC/MS analysis relative to control; type: ADME, cell-based
Homo sapiens = test: Cmax in human at 10 mg, po after 72 hrs; type: ADME, organism-based; parameters: dose 10 mg, route oral; details: in vivo
[14] = Fecal excretion rate in orally dosed Sprague-Dawley rat within 24 hrs; type: ADME, organism-based; details: faeces, po, read-out: Activity
[15] = Biodistribution in orally dosed cynomolgus monkey feces assessed as 8,12-dihydroxy muraglitazar level by LC/MS analysis; type: ADME, organism-based, Macaca fascicularis; details: in vivo, po
[16] = Drug concentration in cynomolgus monkey feces assessed as recovery of radioactive dose at 2 mg/kg, po after 168 hrs; type: ADME, organism-based, Macaca fascicularis; parameters: dose 2 mg/kg, route oral; details: in vivo
Plasma [17] = test: Biodistribution in orally dosed Sprague-Dawley rat plasma assessed as muraglitazar glucuronide level after 12 hrs by LC/MS analysis; type: ADME, organism-based; details: in vivo, po
[18] = Drug concentration in bile duct-cannulated Sprague-Dawley rat urine assessed as recovery of radioactive dose at 11 mg/kg, po after 24 hrs; type: ADME, organism-based; parameters: dose 11 mg/kg, route oral; details: in vivo
[19] = Tmax in cynomolgus monkey at 1.9 mg/kg, po after 24 hrs; type: ADME, organism-based, Macaca fascicularis; parameters: dose 1.9 mg/kg, route oral; details: in vivo
[20] = Metabolic stability in cynomolgus monkey hepatocytes assessed as O-demethyl muraglitazar level by LC/MS analysis relative to control; type: ADME, cell-based, Macaca fascicularis, Hepatocyte
[21] = Biodistribution in orally dosed Beagle dog feces assessed as 17-hydroxy muraglitazar level by LC/MS analysis; type: ADME, organism-based, Canis lupus familiaris; details: in vivo, po
[22] = Drug concentration in bile duct-cannulated CD1 mouse bile assessed as recovery of radioactive dose at 40 mg/kg, po after 24 hrs; type: ADME, organism-based; parameters: dose 40 mg/kg, route oral; details: in vivo
Plasma [23] = test: Biodistribution in orally dosed cynomolgus monkey plasma assessed as 12-dihydroxy muraglitazar level after 4 hrs by LC/MS analysis; type: ADME, organism-based, Macaca fascicularis; details: in vivo, po
[24] = Drug concentration in human feces assessed as recovery of radioactive dose at 20 mg, po after 240 hrs; type: ADME, organism-based; details: in vivo
[25] = Biodistribution in orally dosed cynomolgus monkey feces assessed as 9-hydroxy muraglitazar level by LC/MS analysis; type: ADME, organism-based, Macaca fascicularis; details: in vivo, po
[26] = Tmax in Sprague-Dawley rat at 10 mg/kg, po after 24 hrs; type: ADME, organism-based; parameters: dose 10 mg/kg, route oral; details: in vivo
[27] = Drug concentration in bile duct-cannulated cynomolgus monkey feces assessed as recovery of radioactive dose at 5 mg/kg, po after 48 hrs; type: ADME, organism-based, Macaca fascicularis; parameters: dose 5 mg/kg, route oral; details: in vivo
[28] = Metabolic stability in cynomolgus monkey hepatocytes assessed as 12,17-dihydroxy muraglitazar level by LC/MS analysis relative to control; type: ADME, cell-based, Macaca fascicularis, Hepatocyte
Plasma [29] = test: Biodistribution in orally dosed cynomolgus monkey plasma assessed as 12-hydroxy-O-demethyl muraglitazar level after 12 hrs by LC/MS analysis; type: ADME, organism-based, Macaca fascicularis; details: in vivo, po
[30] = Biodistribution in orally dosed human feces assessed as 12-hydroxy muraglitazar level by LC/MS analysis; type: ADME, organism-based; details: in vivo, po
[31] = Biodistribution in orally dosed cynomolgus monkey feces assessed as 12,17-dihydroxy muraglitazar level by LC/MS analysis; type: ADME, organism-based, Macaca fascicularis; details: in vivo, po
Plasma [32] = test: Biodistribution in orally dosed cynomolgus monkey plasma assessed as O-demethyl muraglitazar glucuronide level after 1 hr by LC/MS analysis; type: ADME, organism-based, Macaca fascicularis; details: in vivo, po
Plasma [33] = test: Biodistribution in orally dosed Beagle dog plasma assessed as 12-dihydroxy muraglitazar level after 1 hr by LC/MS analysis; type: ADME, organism-based, Canis lupus familiaris; details: in vivo, po
Hepatocyte [34] = test: Metabolic stability in Sprague-Dawley rat hepatocytes assessed as 8-hydroxy-O-demethyl muraglitazar level by LC/MS analysis relative to control; type: ADME, cell-based
Plasma [35] = test: Biodistribution in orally dosed cynomolgus monkey plasma assessed as O-Dealkyl muraglitazar level after 1 hr by LC/MS analysis; type: ADME, organism-based, Macaca fascicularis; details: in vivo, po
Hepatocyte [36] = test: Metabolic stability in human hepatocytes assessed as 12,17-dihydroxy muraglitazar level by LC/MS analysis relative to control; type: ADME, cell-based
[37] = Biodistribution in orally dosed cynomolgus monkey urine assessed as muraglitazar glucuronide level by LC/MS analysis; type: ADME, organism-based, Macaca fascicularis; details: in vivo, po
Plasma [38] = test: Biodistribution in orally dosed cynomolgus monkey plasma assessed as 12-hydroxy-O-demethyl muraglitazar level after 4 hrs by LC/MS analysis; type: ADME, organism-based, Macaca fascicularis; details: in vivo, po
Hepatocyte [39] = test: Metabolic stability in Sprague-Dawley rat hepatocytes assessed as radioactivity recovaries at 25.6 ug/mL after 4 hrs; type: ADME, cell-based
Rattus norvegicus [40] = test: Biodistribution in orally dosed Sprague-Dawley rat urine assessed as 12-hydroxy muraglitazar level by LC/MS analysis; type: ADME, organism-based; details: in vivo, po
Plasma [41] = test: Biodistribution in orally dosed cynomolgus monkey plasma assessed as 17-dihydroxy muraglitazar level after 4 hrs by LC/MS analysis; type: ADME, organism-based, Macaca fascicularis; details: in vivo, po
Plasma [42] = test: Biodistribution in orally dosed cynomolgus monkey plasma assessed as muraglitazar 12-carboxylic acid level after 12 hrs by LC/MS analysis; type: ADME, organism-based, Macaca fascicularis; details: in vivo, po
Rattus norvegicus [43] = test: Biodistribution in orally dosed Sprague-Dawley rat feces assessed as O-dealkyl muraglitazar level by LC/MS analysis; type: ADME, organism-based; details: in vivo, po
[44] = Drug concentration in human bile assessed as recovery of radioactive dose at 20 mg, po after 3 to 8 hrs; type: ADME, organism-based; details: in vivo
[45] = Biodistribution in orally dosed human feces assessed as O-demethyl muraglitazar level by LC/MS analysis; type: ADME, organism-based; details: in vivo, po
[46] = Biodistribution in orally dosed cynomolgus monkey urine assessed as O-demethyl muraglitazar glucuronide level by LC/MS analysis; type: ADME, organism-based, Macaca fascicularis; details: in vivo, po
[47] = Biodistribution in orally dosed human feces assessed as acetylimide derivative of muraglitazar level by LC/MS analysis; type: ADME, organism-based; details: in vivo, po
[48] = Biodistribution in orally dosed human feces assessed as O-dealkyl muraglitazar level by LC/MS analysis; type: ADME, organism-based; details: in vivo, po
Plasma [49] = test: Biodistribution in orally dosed Sprague-Dawley rat plasma assessed as O-demethyl muraglitazar glucuronide level after 12 hrs by LC/MS analysis; type: ADME, organism-based; details: in vivo, po
[50] = Biodistribution in orally dosed human urine assessed as muraglitazar glucuronide level by LC/MS analysis; type: ADME, organism-based; details: in vivo, po
Hepatocyte [51] = test: Metabolic stability in Sprague-Dawley rat hepatocytes assessed as hydroxyl muraglitazar glucuronide level by LC/MS analysis relative to control; type: ADME, cell-based
[52] = Metabolic stability in CD1 mouse hepatocytes assessed as hydroxyl muraglitazar glucuronide level by LC/MS analysis relative to control; type: ADME, cell-based, Hepatocyte

**Q.** Which Drug uptake (Plasma [1]) does the source give for COc1ccc(OC(=O)N(CC(=O)O)Cc2ccc(OCCc3nc(-c4ccccc4)oc3C)cc2)cc1 [MURAGLITAZAR] here?
**A.** < 0.05%

**Q.** What about the Drug uptake [2] of the same compound?
**A.** 2.6%

**Q.** And the AUC (Rattus norvegicus [3])?
**A.** 105 ugequiv.h/ml

**Q.** And the Drug uptake (Rattus norvegicus [4])?
**A.** < 0.01%

**Q.** What about the dose excreted at 48 h [5] of the same compound?
**A.** 15%

**Q.** What about the Drug uptake [6] of the same compound?
**A.** 0.03%

**Q.** And the Drug uptake [7]?
**A.** 0.08%

**Q.** And the Drug uptake (Plasma [8])?
**A.** 9%

**Q.** And the Drug uptake (Rattus norvegicus [9])?
**A.** < 0.01%

**Q.** What about the Drug uptake (Rattus norvegicus [10]) of the same compound?
**A.** < 0.01%

**Q.** What about the Drug uptake (Hepatocyte [11]) of the same compound?
**A.** < 0.2%

**Q.** And the Drug uptake (Plasma [12])?
**A.** 2.3%

**Q.** What about the Drug uptake (Hepatocyte [13]) of the same compound?
**A.** < 0.2%

**Q.** And the Cmax (Homo sapiens)?
**A.** 1.4 ugequiv/ml

**Q.** And the dose excreted at 24 h [14]?
**A.** 85%

**Q.** What about the Drug uptake [15] of the same compound?
**A.** 0.16%

**Q.** What about the Drug uptake [16] of the same compound?
**A.** 80.4%

**Q.** What about the Drug uptake (Plasma [17]) of the same compound?
**A.** 0.05%

**Q.** And the Drug uptake [18]?
**A.** 0.98%

**Q.** What about the Tmax [19] of the same compound?
**A.** 60 min

**Q.** And the Drug uptake [20]?
**A.** 2.1%

**Q.** What about the Drug uptake [21] of the same compound?
**A.** 1.78%

**Q.** And the Drug uptake [22]?
**A.** 66%

**Q.** What about the Drug uptake (Plasma [23]) of the same compound?
**A.** 1.6%

**Q.** What about the Drug uptake [24] of the same compound?
**A.** 50.7%

**Q.** And the Drug uptake [25]?
**A.** 0.56%

**Q.** What about the Tmax [26] of the same compound?
**A.** 30 min

**Q.** And the Drug uptake [27]?
**A.** 15%

**Q.** What about the Drug uptake [28] of the same compound?
**A.** < 0.2%

**Q.** What about the Drug uptake (Plasma [29]) of the same compound?
**A.** 2.7%

**Q.** What about the Drug uptake [30] of the same compound?
**A.** 8.2%

**Q.** What about the Drug uptake [31] of the same compound?
**A.** 6.43%

**Q.** What about the Drug uptake (Plasma [32]) of the same compound?
**A.** 0.1%

**Q.** What about the Drug uptake (Plasma [33]) of the same compound?
**A.** 1%

**Q.** What about the Drug uptake (Hepatocyte [34]) of the same compound?
**A.** < 0.2%

**Q.** What about the Drug uptake (Plasma [35]) of the same compound?
**A.** 0.3%

**Q.** What about the Drug uptake (Hepatocyte [36]) of the same compound?
**A.** 0.2%

**Q.** And the Drug uptake [37]?
**A.** 0.02%

**Q.** What about the Drug uptake (Plasma [38]) of the same compound?
**A.** 2.9%

**Q.** What about the Stability (Hepatocyte [39]) of the same compound?
**A.** 96.5%

**Q.** And the Drug uptake (Rattus norvegicus [40])?
**A.** 0.03%

**Q.** And the Drug uptake (Plasma [41])?
**A.** 16.2%

**Q.** What about the Drug uptake (Plasma [42]) of the same compound?
**A.** 0.5%

**Q.** What about the Drug uptake (Rattus norvegicus [43]) of the same compound?
**A.** 1.75%

**Q.** And the Drug uptake [44]?
**A.** 39.9%

**Q.** And the Drug uptake [45]?
**A.** 3.33%

**Q.** What about the Drug uptake [46] of the same compound?
**A.** < 0.01%

**Q.** And the Drug uptake [47]?
**A.** 3.21%

**Q.** And the Drug uptake [48]?
**A.** 0.8%

**Q.** And the Drug uptake (Plasma [49])?
**A.** 0.4%

**Q.** What about the Drug uptake [50] of the same compound?
**A.** 1%

**Q.** And the Drug uptake (Hepatocyte [51])?
**A.** 0.5%

**Q.** What about the Drug uptake [52] of the same compound?
**A.** 2.7%
